# Measured values as given in PubChem BioAssay (NCI).
#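 96-well plates; 48 h exposure; 5 concentrations. Endpoints by linear interpolation between flanking doses. Not reached: highest tested concentration assigned. GI50 marks 50% less growth. Definition used: TGI = concentration required for complete inhibition of growth.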
# How the values were obtained:
# Assay in all cases: growth of human tumour cells (NCI), 48 h
# DU-145 prostate = test system: DU-145 prostate
# K-562 leukemia = test system: K-562 leukemia
# MOLT-4 leukemia = test system: MOLT-4 leukemia
# OVCAR-5 ovarian = test system: OVCAR-5 ovarian
# SK-MEL-5 melanoma = test system: SK-MEL-5 melanoma
# UACC-62 melanoma = test system: UACC-62 melanoma
Compound,GI50 (DU-145 prostate),TGI (DU-145 prostate),GI50 (K-562 leukemia),TGI (K-562 leukemia),GI50 (MOLT-4 leukemia),TGI (MOLT-4 leukemia),GI50 (OVCAR-5 ovarian),TGI (OVCAR-5 ovarian),GI50 (SK-MEL-5 melanoma),TGI (SK-MEL-5 melanoma),GI50 (UACC-62 melanoma),TGI (UACC-62 melanoma)
CCN(CCCN(C)C)Cc1cc(I)cc(C)c1O,36.8 µM,> 100 µM,6.95 µM,23.3 µM,17.9 µM,36.5 µM,26.8 µM,96.1 µM,17.6 µM,31.5 µM,16.4 µM,37.1 µM
O=C(Nc1ccc2[nH]nc(-c3ccncc3)c2c1)[C@@H]1CCN(CC(=O)N2CCN(c3ccc(-c4ncccn4)cc3)CC2)C1,7.58 µM,> 100 µM,1.96 µM,> 73.2 µM,5.22 µM,> 80.6 µM,,,0.607 µM,> 100 µM,,
CC1=CC(=O)C2=C(C)CCC3C(C)C(=O)OC3C12 (centres undefined),,> 100 µM,,,,> 100 µM,,> 100 µM,,> 100 µM,,> 100 µM
CC(C)C1=CC(=O)C(C)(C2C(O)CC3(C)C4CC=C5C(CCC(OC6OC(CO)C(O)C(O)C6OC6OC(C)C(O)C(O)C6O)C5(C)C)C4(C)C(=O)CC23C)O1 (centres undefined),,> 100 µM,,> 100 µM,,> 100 µM,,> 100 µM,,> 100 µM,,> 100 µM
O=c1[nH]c2ccccc2c2ccccc12,> 100 µM,> 100 µM,> 100 µM,> 100 µM,> 100 µM,> 100 µM,> 100 µM,> 100 µM,91.5 µM,> 100 µM,> 100 µM,> 100 µM
CC(N)C(Cc1ccc(Cl)cc1)c1ccc(Cl)cc1 (centres undefined),12.5 µM,25.7 µM,3.05 µM,10.8 µM,13.6 µM,31.4 µM,12.4 µM,27.3 µM,12.4 µM,25.1 µM,6.01 µM,19.6 µM
CCCCCCCCCCCCOC1C(CNC(=O)C2OC3OC(C)(C)OC3C2NC(=O)Nc2ccc(CC(=O)OC)cc2)OC2OC(C)(C)OC21 (centres undefined),> 77 µM,> 100 µM,,,,> 100 µM,> 100 µM,> 100 µM,> 100 µM,> 100 µM,> 100 µM,> 100 µM
Cc1cccc(N(C)C(=O)[C@@H]2[C@H](O)CCN2c2nc(C)cc(C(F)(F)F)c2C#N)c1,25.1 µM,> 100 µM,0.747 µM,> 100 µM,1.98 µM,53.8 µM,25.4 µM,98.2 µM,15.6 µM,30.6 µM,21.9 µM,74.5 µM
O=Nc1ccc(O)c(=O)cc1,3.74 µM,10.8 µM,0.498 µM,> 100 µM,0.821 µM,20.8 µM,5.49 µM,17.8 µM,3.63 µM,10.6 µM,2.01 µM,5.68 µM
O=S(=O)(NCCCNc1nccc(-c2c(-c3ccc(O)cc3)nc3sccn23)n1)c1ccc(F)cc1,2.52 µM,9.56 µM,1.67 µM,> 100 µM,2.47 µM,8.81 µM,5.58 µM,> 100 µM,1.21 µM,2.67 µM,0.0245 µM,1.33 µM
COc1ccc2c(c1)/C(=C\c1c(-c3cc(OC)ccc3OC)nc3sc(C)cn13)C(=O)N2C,56.9 µM,> 100 µM,28 µM,> 100 µM,14.1 µM,51.8 µM,55.7 µM,> 100 µM,20.9 µM,65.4 µM,17.3 µM,44.5 µM
O=C(CC(Cl)=C(Cl)Cl)Nc1ccccc1,> 100 µM,> 100 µM,,,> 100 µM,> 100 µM,> 100 µM,> 100 µM,> 100 µM,> 100 µM,> 100 µM,> 100 µM
O=C(Cc1ccc(/C=C/C(=O)c2ncc[nH]2)cc1)Nc1ccc(F)cc1,1.19 µM,4.58 µM,1.3 µM,> 33.3 µM,5.74 µM,> 33.3 µM,2.6 µM,9.81 µM,6.06 µM,11.9 µM,5.92 µM,22.6 µM
NS(=O)(=O)c1ccc(Nc2cc(-c3cccc(O)c3)[nH]n2)cc1,> 25 µM,> 25 µM,> 25 µM,> 25 µM,13.4 µM,> 25 µM,> 25 µM,> 25 µM,14.8 µM,> 25 µM,> 24.2 µM,> 25 µM
Fc1cccc(COc2ccc(Nc3ncnc4sc(-c5cccs5)cc34)cc2Cl)c1,11.1 µM,> 17.7 µM,> 25 µM,> 25 µM,> 25 µM,> 25 µM,6.89 µM,> 25 µM,2.93 µM,12 µM,1.59 µM,5.71 µM
CS(=O)(=O)Nc1cncc(-c2ccc3ncnc(Nc4ccc(F)c(Cl)c4)c3c2)c1,2.25 µM,15.2 µM,3.88 µM,20.1 µM,1.6 µM,4.65 µM,2.4 µM,22 µM,1.83 µM,4.48 µM,2.22 µM,11.8 µM
Cc1nc2ccc(Nc3nc(Cl)nc(N4CCOCC4)n3)cc2n1Cc1ccccc1,28.1 µM,> 100 µM,2.82 µM,> 100 µM,,,> 100 µM,> 100 µM,,,3.43 µM,22.9 µM
CC(=O)Nc1ccc2c(c1)C(c1ccccc1Cl)=Nc1c(n[nH]c1C)N2,> 22.8 µM,> 25 µM,17.3 µM,> 25 µM,9.75 µM,> 25 µM,24.6 µM,> 25 µM,17.6 µM,> 25 µM,6.07 µM,> 25 µM
COc1cc(C2Cc3ncccc3-c3[nH]c(=O)c4cccnc4c32)cc(OC)c1OC (centres undefined),0.428 µM,> 100 µM,0.313 µM,> 100 µM,0.535 µM,> 100 µM,4.82 µM,> 100 µM,0.339 µM,20.2 µM,0.463 µM,> 100 µM
O=C(Oc1cccc2cccnc12)c1cc2c(cc1Cl)SC(N(c1ccc(F)cc1)S(=O)(=O)c1ccc(Br)s1)=NS2(=O)=O,27.3 µM,> 100 µM,29.1 µM,> 100 µM,28.7 µM,> 100 µM,26.6 µM,94.3 µM,18.2 µM,39.8 µM,32.6 µM,> 100 µM
